Data: US9204653B2, “5-fluoro pyrimidine derivatives” (DOW AGROSCIENCES LLC, priority 2008, dated 2015)
Like-named read-outs stand apart in the source and are kept apart here.

System: Mycosphaerella graminicola; Anamorph: Septoria tritici; Bayer Code SEPTTR
Test: Leaf blotch of wheat, foliar fungicide treatment, one day protectant (1DP) or three day curative (3DC)
Assay type: in vivo, Septoria tritici on wheat plants (variety Yuma)
Details: Zymoseptoria tritici, rating of percent disease control
[1] = 24 h, one day protectant (1DP), read-out: SETTTR 1DP 25 ppm
[2] = 24 h, one day protectant (1DP), read-out: SEPTTR 1DP 100 ppm
[3] = 72 h, three day curative (3DC), read-out: SEPTTR 3DC 25 ppm
[4] = 72 h, three day curative (3DC), read-out: SEPTTR 3DC 100 ppm

| SMILES | pest or weed control at 25 ppm [1] | pest or weed control at 100 ppm [2] | pest or weed control at 25 ppm [3] | pest or weed control at 100 ppm [4] |
| --- | --- | --- | --- | --- |
| CNC(=S)Nc1nc(OCc2ccc(C)cc2)ncc1F [Compound 182] | 76 to 100% | 76 to 100% | 76 to 100% | 76 to 100% |
| N#Cc1cccc(COc2ncc(F)c(NC(=O)NCc3ccccc3)n2)c1 [Compound 183] | 0 to 25% | 0 to 25% | 0 to 25% | 0 to 25% |
| Nc1nc(OCc2ccc(C(F)(F)F)nc2)ncc1F [Compound 184] | 76 to 100% | 76 to 100% | 51 to 75% | 76 to 100% |
| COc1cc(F)c(COc2ncc(F)c(N)n2)cn1 [Compound 185] | 76 to 100% | 76 to 100% | 76 to 100% | 76 to 100% |
| CCCNC(=O)Nc1nc(OCc2ccc(F)cc2)ncc1F [Compound 186] | 51 to 75% | 51 to 75% | 0 to 25% | 0 to 25% |
| Cc1cccc(COc2ncc(F)c(N)n2)c1 [Compound 188] | 76 to 100% | 76 to 100% | 76 to 100% | 76 to 100% |
| COc1cccc(COc2ncc(F)c(NC(=O)c3ccccc3)n2)c1 [Compound 191] | 76 to 100% | 76 to 100% | 76 to 100% | 76 to 100% |
| CC(=O)OC[C@H]1O[C@@H](Oc2ncc(F)c(N)n2)[C@H](OC(C)=O)[C@@H](OC(C)=O)[C@@H]1OC(C)=O [Compound 192] | 76 to 100% | 76 to 100% | 51 to 75% | 76 to 100% |
| Nc1nc(OCc2ccc(OCc3ccccc3)cc2)ncc1F [Compound 193] | 76 to 100% | 76 to 100% | 76 to 100% | 76 to 100% |
| Nc1nc(OCc2c(F)cc(F)cc2F)ncc1F [Compound 194] | 76 to 100% | 76 to 100% | 76 to 100% | 76 to 100% |
| OCNc1nc(OCc2cccs2)ncc1F [Compound 196] | 76 to 100% | 76 to 100% | 76 to 100% | 76 to 100% |
| CC(C)c1ccc(COc2ncc(F)c(N)n2)cc1 [Compound 197] | 51 to 75% | 76 to 100% | 51 to 75% | 76 to 100% |
| CCOC(=O)COC(=O)Nc1nc(OCc2cccc(F)c2)ncc1F [Compound 199] | 0 to 25% | 76 to 100% | 51 to 75% | 76 to 100% |
| COc1ccc(COc2ncc(F)c(NSc3ccccc3[N+](=O)[O-])n2)cc1F [Compound 200] | 0 to 25% | 26 to 50% | 0 to 25% | 0 to 25% |
| COc1cccc(COc2ncc(F)c(NC(=O)NCc3ccccc3F)n2)c1 [Compound 201] | 0 to 25% | 0 to 25% | 0 to 25% | 0 to 25% |
| Fc1ccc(COc2ncc(F)c(NC3CCCCC3)n2)cc1 [Compound 205] | 0 to 25% | 0 to 25% | 0 to 25% | 51 to 75% |
| Cc1ccc(COc2ncc(F)c(NC(=O)Nc3ccccc3F)n2)cc1 [Compound 208] | 0 to 25% | 0 to 25% | 0 to 25% | 26 to 50% |
| Nc1nc(OCc2ccc(F)c(F)c2)ncc1F [Compound 210] | 76 to 100% | 76 to 100% | 76 to 100% | 76 to 100% |
| Nc1nc(OCc2cccc(I)c2)ncc1F [Compound 212] | 76 to 100% | 76 to 100% | 76 to 100% | 76 to 100% |
| Nc1nc(OCc2cccs2)ncc1F [Compound 213] | 76 to 100% | 76 to 100% | 76 to 100% | 76 to 100% |
| COc1ccc(COc2ncc(F)c(NCO)n2)cc1F [Compound 216] | 76 to 100% | 76 to 100% | 51 to 75% | 76 to 100% |
| Nc1nc(OCC2Cc3ccccc3O2)ncc1F (stereo not shown) [Compound 219] | 51 to 75% | 76 to 100% | 0 to 25% | 51 to 75% |
| O=C(Nc1nc(OCc2ccc(F)cc2)ncc1F)OCc1ccccc1 [Compound 220] | 76 to 100% | 76 to 100% | 76 to 100% | 76 to 100% |

| SMILES | pest or weed control at 25 ppm [1] | pest or weed control at 100 ppm [2] | pest or weed control at 25 ppm [3] | pest or weed control at 100 ppm [4] |
| --- | --- | --- | --- | --- |
| COc1ccccc1Oc1ncc(F)c(N)n1 [Compound 223] | 76 to 100% | 76 to 100% | 76 to 100% | 76 to 100% |
| COc1ccc(Br)c(COc2ncc(F)c(N)n2)c1F [Compound 224] | 26 to 50% | 76 to 100% | 0 to 25% | 26 to 50% |
| CCOC(CC)Nc1nc(OCc2ccc(F)cc2)ncc1F (stereo not shown) [Compound 227] | 76 to 100% | 76 to 100% | 76 to 100% | 76 to 100% |
| COc1ccccc1COc1ncc(F)c(NSc2ccccc2[N+](=O)[O-])n1 [Compound 230] | 76 to 100% | 76 to 100% | 0 to 25% | 0 to 25% |
| O=C(Nc1ccccc1F)Nc1nc(OCc2cccc(F)c2)ncc1F [Compound 231] | 0 to 25% | 0 to 25% | 0 to 25% | 0 to 25% |
| Cc1ccc(COc2ncc(F)c(N)n2)cc1F [Compound 232] | 76 to 100% | 76 to 100% | 76 to 100% | 76 to 100% |
| CN(C)/C=N/c1nc(OC(=O)c2c(Cl)cccc2Cl)ncc1F [Compound 234] | 76 to 100% | 76 to 100% | 76 to 100% | 76 to 100% |
| ON(Cc1ccccc1)c1nc(OCc2ccc(F)cc2)ncc1F [Compound 235] | 76 to 100% | 76 to 100% | 51 to 75% | 76 to 100% |
| CNc1nc(OCc2cccs2)ncc1F [Compound 237] | 0 to 25% | 0 to 25% | 0 to 25% | 0 to 25% |
| CCC(Nc1nc(OCc2ccc(F)cc2)ncc1F)Nc1nc(OCc2ccc(F)cc2)ncc1F [Compound 238] | 0 to 25% | 51 to 75% | 0 to 25% | 26 to 50% |
| COc1ccccc1COc1ncc(F)c(NC(=S)Nc2ccccc2F)n1 [Compound 239] | 76 to 100% | 76 to 100% | 51 to 75% | 76 to 100% |
| Nc1nc(OCCc2ccccc2Cl)ncc1F [Compound 240] | 0 to 25% | 26 to 50% | 0 to 25% | 0 to 25% |
| COc1ccc(COc2ncc(F)c(/N=C/N3CCOCC3)n2)cc1F [Compound 241] | 76 to 100% | 76 to 100% | 76 to 100% | 51 to 75% |
| Cc1ccc(COc2ncc(F)c(NNC3CCCCC3)n2)cc1 [Compound 244] | 0 to 25% | 76 to 100% | 0 to 25% | 76 to 100% |
| Cn1ccc(COc2ncc(F)c(NCO)n2)n1 [Compound 245] | 51 to 75% | 76 to 100% | 51 to 75% | 76 to 100% |
| Cc1cc(Cl)ccc1Oc1ncc(F)c(N)n1 [Compound 246] | 0 to 25% | 0 to 25% |  |  |
| CN(C)/C=N/c1nc(OC(=O)C2CCCCC2)ncc1F [Compound 247] | 76 to 100% | 76 to 100% | 76 to 100% | 76 to 100% |
| COc1ccc(COc2ncc(F)c(NCc3ccccc3F)n2)cc1 [Compound 249] | 26 to 50% | 76 to 100% | 26 to 50% | 51 to 75% |
| CN(C)/C=N/c1nc(Cl)ncc1F [Compound 252] | 26 to 50% | 26 to 50% | 0 to 25% | 0 to 25% |
| Cc1ccc(COc2ncc(F)c(N(C)N)n2)cc1 [Compound 253] | 26 to 50% | 76 to 100% | 51 to 75% | 76 to 100% |
| C=C(C)COc1ncc(F)c(N)n1 [Compound 256] | 0 to 25% | 0 to 25% | 0 to 25% | 26 to 50% |
| CCOCNc1nc(OCc2ccc(F)cc2)ncc1F [Compound 257] | 51 to 75% | 76 to 100% | 51 to 75% | 76 to 100% |
